Measurements from US10011571B2, “Preparation method for aromatic heterocyclic compound used as selective JAK3 and/or JAK1 kinase inhibitor and application of aromatic heterocyclic compound” (SHENZHEN CHIPSCREEN BIOSCIENCES, LTD., priority 2014, dated 2018).

Key:
[1] = biological target: JAK2 (Homo sapiens (Human), UniProt O60674); test: Z'-LYTE enzymatic activity detection, JAK2; type: biochemical; details: test compound 30 nM; for inhibition at 0.03 µM: read-out: JAK2 % inhibitory rate @30 nM
Experimental: (§1) The basic principle of in vitro enzymatic activity assay is based on the difference between the intensities of fluorescence signals generated at different wavelengths (445 nm and 520 nm) from the phosphorylated substrate and non-phosphorylated substrate, in which the specific fluorescence-labeled substrate is phosphorylated by the kinase. When different test compounds are added, the inhibition of kinase activity is represented as the different degrees of substrate phosphorylation, and thus as the different intensities of fluorescence signal, based on which the inhibitory activity of the compound on the kinase can be calculated. Basic detection principle is illustrated in FIG. 1.
(§2) In an enzymatic inhibitory activity detection, GST-labeled human recombinant JAK kinases, including JAK1/PV4774, JAK2/PV4210, JAK3/PV3855, TYK2/PV4790 and their corresponding specific substrates, including Tyr6 (Z′-LYTE® Kinase Assay Kit-Tyrosine 6 Peptide, JAK1/PV4122), Tyr4 (Z′-LYTE® Kinase Assay Kit-Tyrosine 4 Peptide, JAK2/PV3193), Tyr4 (Z′-LYTE® Kinase Assay Kit-Tyrosine 4 Peptide, JAK3/PV3193), Tyr3 (Z′-LYTE® Kinase Assay Kit-[…], TYK2/PV3192) are used. In all tests, development reagent A (PV3297) was used as the test agent. All materials mentioned above were purchased from Invitrogen.
(§3) (1) Preparation: kinase reaction buffer (working solution) is prepared according to the instruction; a concentration gradient of the test compound is prepared by dilution using the kinase reaction buffer (the highest compound concentration is 10 μM for JAK1, JAK2, and TYK2 detection, and 1 μM for JAK3 detection, respectively).
(§4) (2) 10 μl of reaction system, comprising 2.5 μL test compound, 5 μL kinase reaction buffer and 2.5 μL ATP solution (provided by the kit), is mixed and reaction is performed at room temperature for 1 h.
(§5) (3) Controls, including a solvent control without the test compound, a negative control without ATP and a positive control with the phosphorylated substrate, are tested together with the detection. All tests are carried out in triplicate.
(§6) (4) After the enzymatic reaction, 5 μL pre-formulated development buffer is added, and reaction is performed at room temperature for 1 h. Subsequently, the reaction is terminated by adding 5 μL stop buffer.
(§7) (5) The fluorescence signal in each well is detected by an Ascent Fluoroskan FL reader (Thermo Labsystems) at an excitation wavelength of 400 nm, and emission wavelengths of 445 nm and 520 nm. The proportion of substrate phosphorylation is obtained by reference to the fluorescence signal intensity C445/F520.
(§8) (6) The enzymatic inhibitory rate of the test compound can be calculated based on the following equation: Inhibitory rate (%)=1−the proportion of substrate phosphorylation in the detection well/the proportion of substrate phosphorylation in the solvent control well. The half-inhibitory concentration (IC50) can be calculated using an IC50 calculator based on the inhibitory rates of phosphorylation for the test compounds at different concentration gradients.
(§9) Based on the above method, the compounds described herein are enzymatically evaluated in vitro for JAKs (the concentration of the test compound is 30 nM for JAK3 and JAK2 test, and 300 nM for JAK1 test) using Xeljanz (tofacitinib citrate) as the positive control.

[2] = biological target: JAK1 (Homo sapiens (Human), UniProt P23458); test: Z'-LYTE enzymatic activity detection, JAK1; type: biochemical; details: test compound 300 nM; for inhibition at 0.3 µM: read-out: JAK1 % inhibitory rate @300 nM
Sequence of JAK1 (P23458 whole entry): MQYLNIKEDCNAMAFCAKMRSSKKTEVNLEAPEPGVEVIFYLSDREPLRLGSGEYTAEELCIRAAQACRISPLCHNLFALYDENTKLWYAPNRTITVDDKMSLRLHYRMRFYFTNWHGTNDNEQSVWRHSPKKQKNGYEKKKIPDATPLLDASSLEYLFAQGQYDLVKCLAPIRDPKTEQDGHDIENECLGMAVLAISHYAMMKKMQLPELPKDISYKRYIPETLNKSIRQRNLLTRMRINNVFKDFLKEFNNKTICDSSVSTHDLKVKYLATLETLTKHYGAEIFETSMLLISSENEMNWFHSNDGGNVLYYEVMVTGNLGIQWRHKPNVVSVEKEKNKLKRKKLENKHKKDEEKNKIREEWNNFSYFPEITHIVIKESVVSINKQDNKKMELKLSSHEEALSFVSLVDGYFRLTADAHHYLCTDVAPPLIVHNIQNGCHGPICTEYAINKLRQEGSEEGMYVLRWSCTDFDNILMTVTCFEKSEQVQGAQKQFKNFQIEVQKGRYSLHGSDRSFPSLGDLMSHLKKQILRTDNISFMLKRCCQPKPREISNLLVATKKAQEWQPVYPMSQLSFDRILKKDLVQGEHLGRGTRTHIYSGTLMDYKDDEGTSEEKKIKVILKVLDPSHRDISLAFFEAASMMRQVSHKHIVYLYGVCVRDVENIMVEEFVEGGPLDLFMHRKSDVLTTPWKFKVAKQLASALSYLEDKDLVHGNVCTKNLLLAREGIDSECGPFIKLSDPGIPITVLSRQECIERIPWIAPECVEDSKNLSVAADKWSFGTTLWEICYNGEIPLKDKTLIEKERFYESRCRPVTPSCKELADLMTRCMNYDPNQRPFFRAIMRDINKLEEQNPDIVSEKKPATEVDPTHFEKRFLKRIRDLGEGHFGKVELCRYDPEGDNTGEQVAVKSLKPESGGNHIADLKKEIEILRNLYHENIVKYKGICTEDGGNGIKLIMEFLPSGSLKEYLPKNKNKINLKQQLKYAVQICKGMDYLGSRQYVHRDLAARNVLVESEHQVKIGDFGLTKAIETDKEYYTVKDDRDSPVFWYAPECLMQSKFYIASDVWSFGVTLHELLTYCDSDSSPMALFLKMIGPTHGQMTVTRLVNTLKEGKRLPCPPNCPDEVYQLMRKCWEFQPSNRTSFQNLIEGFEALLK
Experimental: as §1, §2, §3, §4, §5, §6, §7, §8, §9

[3] = biological target: JAK3 (Homo sapiens (Human), UniProt P52333); test: Z'-LYTE enzymatic activity detection, JAK3; type: biochemical; details: test compound 30 nM; for inhibition at 0.03 µM: read-out: JAK3 % inhibitory rate @30 nM
Sequence of JAK3 (P52333 whole entry): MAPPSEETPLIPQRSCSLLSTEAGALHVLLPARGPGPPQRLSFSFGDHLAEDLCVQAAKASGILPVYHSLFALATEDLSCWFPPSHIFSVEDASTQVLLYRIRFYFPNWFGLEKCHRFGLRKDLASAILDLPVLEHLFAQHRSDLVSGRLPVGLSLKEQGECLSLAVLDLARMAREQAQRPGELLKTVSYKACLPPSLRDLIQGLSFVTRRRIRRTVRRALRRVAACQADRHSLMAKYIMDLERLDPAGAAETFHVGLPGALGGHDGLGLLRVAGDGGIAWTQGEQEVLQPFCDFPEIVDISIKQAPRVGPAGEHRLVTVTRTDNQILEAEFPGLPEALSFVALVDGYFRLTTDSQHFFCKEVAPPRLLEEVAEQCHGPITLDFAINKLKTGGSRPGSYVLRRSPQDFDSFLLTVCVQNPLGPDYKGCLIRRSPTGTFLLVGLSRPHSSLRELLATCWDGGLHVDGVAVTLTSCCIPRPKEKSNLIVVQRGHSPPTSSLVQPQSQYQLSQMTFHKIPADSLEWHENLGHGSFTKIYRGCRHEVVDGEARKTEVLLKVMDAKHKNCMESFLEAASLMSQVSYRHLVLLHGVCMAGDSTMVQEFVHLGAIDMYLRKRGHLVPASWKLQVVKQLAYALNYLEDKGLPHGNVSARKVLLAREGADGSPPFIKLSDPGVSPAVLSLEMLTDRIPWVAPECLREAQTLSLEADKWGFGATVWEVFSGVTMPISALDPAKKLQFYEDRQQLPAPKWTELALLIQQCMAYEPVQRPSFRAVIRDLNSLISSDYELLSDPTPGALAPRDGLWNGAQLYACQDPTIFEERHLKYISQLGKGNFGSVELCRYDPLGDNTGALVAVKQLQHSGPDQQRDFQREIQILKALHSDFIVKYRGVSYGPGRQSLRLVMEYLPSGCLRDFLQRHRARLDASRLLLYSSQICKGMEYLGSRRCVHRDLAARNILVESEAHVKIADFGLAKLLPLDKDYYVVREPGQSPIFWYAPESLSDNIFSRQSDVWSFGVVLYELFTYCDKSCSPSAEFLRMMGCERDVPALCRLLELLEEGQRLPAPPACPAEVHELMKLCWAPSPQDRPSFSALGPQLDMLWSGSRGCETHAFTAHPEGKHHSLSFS
Experimental: as §1, §2, §3, §4, §5, §6, §7, §8, §9

[4] = tested on: CTLL-2 cells; test: Cell growth activity assay (MTS), CTLL-2 cell model; type: cell-based, mouse; details: Mus musculus, CTLL-2, 300 nM, 24 h, read-out: CTLL-2 % growth rate @300 nM
Source text: (§10) MTS assay is a routine method for cell toxicity detection. The basic principle is based on the capacity of dehydrogenase in the mitochondria of living cells to reduce a novel yellow […] MTS to formazan, so that the amount of living cells is proportional to the amount of formazan product by detecting the absorbance at 490 nm (OD), thereby speculating the amount of living cells according to the OD value, and understanding the capacity of the test compound to inhibit the growth of cells or to kill the cells.
In this experiment, mouse T-cell line CTLL-2 was used. The proliferation and growth of this cell line strongly depend on IL-2, and it is commonly used to evaluate the active titer of exogenous IL-2. By inhibiting the activity of kinase JAK1/3, the proliferation of CTLL-2 can be inhibited under in vitro culture. The activation and proliferation of T-cell is also important pathological characteristics for various immunological diseases. Thus, this model is also pathologically related.
By comparing the change of absorbance generated by the cells treated by the test compounds using MTS assay, the growth inhibitory activity of the test compounds on the model cells can be realized, and thereby potential inhibitory activity of the compounds on JAK1/3 pathway can be evaluated.
(§11) MTS is performed according to routine procedure in a 96-well plate.
(§12) The model cells are inoculated into each well of the 96-well plate at an appropriate concentration (about 20,000 cells/well). After 24 h, the test compounds are added at different concentration gradients (the highest concentration of 10 μM). A solvent control (DMSO) and a negative control are also performed at the same time. Each experiment is repeated for 3 times. The cells are detected after cultured for another 24 h.
CTLL-2 is a suspended cell. After incubation, 20 μL pre-formulated mixture of MTS and PMS (in a ratio of 20:1) is directly added to each well. After incubation at 37° C. for 2 h, it is then detected by a microplate reader (490 nm).
The effect of the test compound on cell growth is calculated by comparing the change of OD values between the test well and the solvent control well, after subtracting the background of the negative control. For the test compounds at different concentration gradients, the inhibitory rates on the growth of model cells and their half-growth inhibitory concentrations (GI50) are each calculated.
Based on the above method, cytological evaluation is performed to the compounds described herein (for the detection of CTLL-2 cell, the concentration of the test compound is 300 nM; for the detection of HeLa and HUVEC cell, the concentration of the test compound is […]).

[5] = tested on: HeLa cells; test: Cell growth activity assay (MTS), HeLa cell model; type: cell-based, human; design: activity: dose or concentration left out as unconfirmed; details: Homo sapiens, HeLa, 72 h, read-out: HeLa % growth rate
Source text: as §10
HeLa cell is a human cervical cancer cell line, and belongs to epithelial tumor cell line; HUVEC is a human umbilical vein endothelial cell, and belongs to primary endothelial cell; both types of cells express all subtypes except for JAK3.
The change of JAK kinase activity has no significant influence on other cell types except for the immune cells, and both cell models mentioned above are mainly used to evaluate whether there are any other kinase targets besides JAK kinases or there are nonselective cell toxicities.
In this experiment, a cultured cell model is incubated with the test compounds at different concentrations for a specific duration. The effect of the treatment by the test compound on the growth of cells is detected using MTS assay.
as §11
as §12, with “(about 5000” for “(about 20,000”, “highest final” for “highest”, “concentration is 40” for “concentration of 10”, “another 72” for “another 24”
After all culture medium is aspirated out of the well, 100 μL fresh medium and 20 μL pre-formulated mixture of MTS and PMS (in a ratio of 20:1) are added to each well. After incubation at 37° C. for 2 h, it is then detected by a microplate reader (490 nm).
The cell growth inhibitory rate and GI50 of the test compound are calculated as above.
Based on the above method, cytological evaluation is performed to the compounds described herein (for the detection of CTLL-2 cell, the concentration of the test compound is 300 nM; […]).

Sequence of JAK2 (O60674 whole entry): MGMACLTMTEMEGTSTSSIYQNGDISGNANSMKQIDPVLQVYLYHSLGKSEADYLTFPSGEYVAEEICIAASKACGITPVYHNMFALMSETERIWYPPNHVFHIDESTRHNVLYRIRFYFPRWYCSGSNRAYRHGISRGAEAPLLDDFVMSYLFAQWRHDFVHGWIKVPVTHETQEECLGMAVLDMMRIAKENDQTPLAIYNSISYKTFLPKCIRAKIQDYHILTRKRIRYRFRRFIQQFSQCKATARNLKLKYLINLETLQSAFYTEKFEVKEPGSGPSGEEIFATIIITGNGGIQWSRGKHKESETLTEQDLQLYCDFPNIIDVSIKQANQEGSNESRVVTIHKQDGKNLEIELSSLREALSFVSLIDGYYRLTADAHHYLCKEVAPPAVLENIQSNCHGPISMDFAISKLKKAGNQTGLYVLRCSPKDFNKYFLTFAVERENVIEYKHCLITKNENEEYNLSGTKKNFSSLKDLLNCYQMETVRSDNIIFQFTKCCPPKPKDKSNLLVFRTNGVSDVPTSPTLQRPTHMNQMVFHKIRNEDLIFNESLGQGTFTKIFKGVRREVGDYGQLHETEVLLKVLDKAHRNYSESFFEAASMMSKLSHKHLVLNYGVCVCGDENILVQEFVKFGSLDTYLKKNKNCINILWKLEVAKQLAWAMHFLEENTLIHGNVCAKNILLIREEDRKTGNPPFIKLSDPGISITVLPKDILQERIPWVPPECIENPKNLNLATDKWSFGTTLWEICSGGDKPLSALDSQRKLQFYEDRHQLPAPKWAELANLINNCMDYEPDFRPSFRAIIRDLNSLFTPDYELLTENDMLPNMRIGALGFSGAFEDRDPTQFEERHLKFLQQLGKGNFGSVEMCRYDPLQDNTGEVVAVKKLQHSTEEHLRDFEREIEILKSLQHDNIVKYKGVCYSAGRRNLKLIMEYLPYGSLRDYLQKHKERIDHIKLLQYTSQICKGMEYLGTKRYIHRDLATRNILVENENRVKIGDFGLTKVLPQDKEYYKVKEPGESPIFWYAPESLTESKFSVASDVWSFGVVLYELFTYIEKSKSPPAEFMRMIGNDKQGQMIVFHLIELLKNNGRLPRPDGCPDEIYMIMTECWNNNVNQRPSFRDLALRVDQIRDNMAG

Structure (SMILES) | inhibition at 0.03 µM [1] | JAK1 RV (ratio between the inhibitory rate of the test compound and that of Xeljanz) [2] | inhibition at 0.3 µM [2] | JAK3 RV (ratio between the inhibitory rate of the test compound and that of Xeljanz) [3] | inhibition at 0.03 µM [3] | activity at 0.3 µM [4] | activity [5] | JAK2 RV (ratio between the inhibitory rate of the test compound and that of Xeljanz) [1]
C=CC(=O)N(C)c1cc(Nc2ncc(Cl)c(NCCCNC(=O)c3cc(F)c(F)c(F)c3F)n2)ccc1F [Example 107, N-(3-(5-chloro-2-(4-fluoro-3-(N-methylacrylamido)phenylamino)pyrimidinyl-4-amino)propyl)-2,3,4,5-tetrafluorobenzamide] | 0% | 0.79 | 67% | 1.01 | 84% | 2% | 59% | –
C=CC(=O)N(C)c1cc(Nc2ncc(Cl)c(OCCCNC(=O)c3ccc(C#N)cc3)n2)ccc1F [Example 71, N-(3-(5-chloro-2-(4-fluoro-3-(N-methylacrylamido)phenylamino)pyrimidinyl-4-oxo)propyl)-4-cyano-benzamide] | 1% | 0.70 | 7% | 0.70 | 95% | 70% | 112% | 0.01
C=CC(=O)N(C)c1cc(Nc2ncc(F)c(NCCCNC(=O)c3ccc(C#N)cc3)n2)ccc1F [Example 60, 4-cyano-N-(3-(5-fluoro-2-(4-fluoro-3-(N-methylacrylamido)phenylamino)pyrimidinyl-4-amino)propyl)benzamide] | 0% | – | 0% | 0.79 | 106% | 79% | 94% | –
C=CC(=O)N(C)c1cc(Nc2ncc(Cl)c(NCCCNC(=O)c3ccncc3)n2)ccc1F [Example 75, N-(3-(5-chloro-2-(4-fluoro-3-(N-methylacrylamido)phenylamino)pyrimidinyl-4-amino)propyl)isonicotinamide] | 0% | 0.14 | 14% | 0.90 | 121% | 49% | 102% | –
C=CC(=O)N(C)c1cc(Nc2ncc(Cl)c(NCCCNC(=O)c3ccc(C(C)=O)cc3)n2)ccc1F [Example 111, 4-acetyl-N-(3-(5-chloro-2-(4-fluoro-3-(N-methylacrylamido)phenylamino)pyrimidinyl-4-amino)propyl)benzamide] | 0% | 0.19 | 16% | 0.99 | 82% | 3% | 67% | –
C=CC(=O)N(C)c1cc(Nc2ncc(Cl)c(NCCCNC(=O)c3ccc(O)cc3)n2)ccc1F [Example 48, N-(3-(5-chloro-2-(4-fluoro-3-(N-methylacrylamido)phenylamino)pyrimidinyl-4-amino)propyl)-4-hydroxybenzamide] | 0% | – | 0% | 0.56 | 109% | 50% | 90% | –
C=CC(=O)Nc1cc(Nc2ncc(Cl)c(NCCCNC(=O)c3ccc(C(F)(F)F)cc3)n2)ccc1F [Example 13, N-(3-(2-(3-acrylamido-4-fluoro-phenylamino)-5-chloropyrimidinyl-4-amino)propyl)-4-trifluoromethylbenzamide] | 0% | 0.40 | 35% | 0.96 | 79% | 63% | 1% | –
